Consider 12 compounds from patent US20260138978A1, “POSITIVE ALLOSTERIC MODULATORS OF THE MUSCARINIC ACETYLCHOLINE RECEPTOR M1” (Vanderbilt University, priority 2022, published 2026).

In assay [1] the target is T1, human mAChRM1 (Homo sapiens, UniProt P11229).
T1 construct: host or cells: CHO-K1
T1 sequence (P11229 1-460): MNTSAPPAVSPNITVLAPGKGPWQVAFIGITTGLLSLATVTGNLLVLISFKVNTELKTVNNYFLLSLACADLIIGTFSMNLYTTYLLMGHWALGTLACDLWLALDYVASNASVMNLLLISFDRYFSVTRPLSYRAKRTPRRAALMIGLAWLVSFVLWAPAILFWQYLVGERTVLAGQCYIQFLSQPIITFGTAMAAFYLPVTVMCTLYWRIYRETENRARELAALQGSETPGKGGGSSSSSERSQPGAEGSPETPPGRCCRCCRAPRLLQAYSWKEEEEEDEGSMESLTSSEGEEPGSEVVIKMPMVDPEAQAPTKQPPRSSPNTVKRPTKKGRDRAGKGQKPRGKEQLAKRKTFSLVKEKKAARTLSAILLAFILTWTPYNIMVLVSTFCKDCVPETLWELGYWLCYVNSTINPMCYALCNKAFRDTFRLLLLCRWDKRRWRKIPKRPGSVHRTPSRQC
In words: mAChR M1 cell-based functional assay (calcium mobilization), agonist activity upon compound addition, Emax relative to acetylcholine maximum. Conditions: for Agonist Activity Human M1 EC50 / EC50: calcium mobilization upon compound addition; for Emax: relative to the maximum for acetylcholine. An excerpt: Lack of agonist activity may be measured as weak or no increase in calcium fluorescence in mAChRM1-transfected CHO-K1 cells in the presence of the compound, compared to the response of equivalent CHO-K1 cells in the absence of the compound. Lack of mAChRM1 agonist activity may be determined as a percent response relative to acetylcholine. For example, a disclosed compound may have less than or equal to 30%, 25%, 20%, 15%, 10%, 5%, or 1% mAChRM1 agonist activity relative to acetylcholine. A disclosed compound may have substantially no mAChRM1 agonist activity. […] The absence of mAChRM1 agonist activity may contribute to the avoidance of cholinergic adverse effect liability.
(§1) Chinese hamster ovary (CHO-K1) cells stably expressing rat (r)M1 were purchased from the American Type Culture Collection and cultured according to their indicated protocol. CHO cells stably expressing human (h)M2, hM3, and hM5 were described previously (Levey, et al., 1991); hM1 and hM4 cDNAs were purchased from Missouri S&T cDNA Resource; rM4 cDNA was provided by T. I. Bonner (National Institutes of Health, Bethesda, MD). rM2 and rM3 were cloned from a rat brain cDNA library and sequence verified. hM1, rM2, rM3, hM4, and rM4 cDNAs were used to stably transfect CHO-K1 cells purchased from the American Type Culture Collection using Lipofectamine 2000. To make stable rM2, hM2, rM3, hM4. and rM4 cell lines for use in calcium mobilization assays, these cells also were stably transfected with a chimeric G-protein (Gqi5) (provided by B. R. Conklin, University of California, San Francisco) using Lipofectamine 2000. rM1, hM1, rM3, hM3, rM5, and hM5 cells were grown in Ham's F-12 medium containing 10% heat-inactivated fetal bovine serum (FBS), 20 mM HEPES, and 50 μg/mL G418 sulfate. rM2-Gqi5, hM2-Gqi5, and hM4-Gqi5 cells were grown in the same medium also containing 500 µg/mL Hygromycin B. Stable rM4-Gqi5 cells were grown in DMEM containing 10% heat-inactivated FBS, 20 mM HEPES, 400 μg/mL G418 sulfate, and 500 μg/mL Hygromycin B.
(§2) For high throughput measurement of agonist-evoked increases in intracellular calcium, CHO-K1 cells stably expressing muscarinic receptors were plated in growth medium lacking G418 and hygromycin at 15,000 cells/[…] in Greiner 384-well black-walled, tissue culture (TC)-treated, clear-bottom plates (VWR). Cells were incubated overnight at 37° C. and 5% CO2. The next day, cells were washed using an ELX 405 (BioTek) with four washes (80 μL) of assay buffer then aspirated to 20 μL. Next, 20 μL of 16 μM Fluo-4/acetoxymethyl ester (Invitrogen, Carlsbad, CA) prepared as a 2.3 mM stock in DMSO and mixed in a 1:1 ratio with 10% (w/v) Pluronic F-127 and diluted in assay buffer was added to the wells and the cell plates were incubated for 50 min at 37° C. and 5% CO2. Dye was removed by washing with the ELX 405 (four 80 μL washes of assay buffer) then aspirated to 20 μL. Compound master plates were formatted in an 11 point CR^c format (1:3 dilutions) in 100% DMSO with a starting concentration of 10 mM using the BRAVO liquid handler (Agilent). Test compound CRCs were then transferred to daughter plates (240 nL) using the Echo acoustic plate reformatter (Labcyte, Sunnyvale, CA) and then diluted into assay buffer ([…]) to a 2× stock using a Thermo Fisher Combi (Thermo Fisher Scientific, Waltham, MA).
Calcium flux was measured using the Functional Drug Screening System (FDSS) 6000 (Hamamatsu Corporation, Tokyo, Japan) as an increase in the fluorescent static ratio. Compounds were applied to cells (20 μL, 2×) using the automated system of the FDSS 6000 at 4 s into the 300 s protocol and the data were collected at 1 Hz. […] Agonist activity was analyzed as a concentration-dependent increase in calcium mobilization upon compound addition. Emax values for agonist activity are expressed relative to the maximum for acetylcholine. Positive allosteric modulator activity was analyzed as a concentration-dependent increase in the EC20 acetylcholine response. […]
For orientation: Calcium assays in cells follow changes in intracellular calcium, usually with a dye or a luminescent sensor.

Assay [2] deals with T1, human mAChRM1. In words: mAChR M1 cell-based functional assay (calcium mobilization), positive allosteric modulator activity: increase in the EC20 acetylcholine response. Conditions: for Emax: PAM mode; for EC50: read-out: PAM Activity Human M1 EC50.
From the text: as §1, §2
Calcium flux was measured using the Functional Drug Screening System (FDSS) 6000 (Hamamatsu Corporation, Tokyo, Japan) as an increase in the fluorescent static ratio. Compounds were applied to cells (20 μL, 2×) using the automated system of the FDSS 6000 at 4 s into the 300 s protocol and the data were collected at 1 Hz. […] Agonist activity was analyzed as a concentration-dependent increase in calcium mobilization upon compound addition. Emax values for agonist activity are expressed relative to the maximum for acetylcholine. Positive allosteric modulator activity was analyzed as a concentration-dependent increase in the EC20 acetylcholine response. Antagonist activity was analyzed as a concentration-dependent decrease in the EC80 acetylcholine response. Concentration-response curves were generated using a four-parameter logistical equation in XLfit curve fitting software (IDBS, Bridgewater, NJ) for Excel (Microsoft, Redmond, WA) or Prism (GraphPad Software, Inc., San Diego, CA).
Activity (EC50 and Emax) was determined in the mAChRM1 cell-based functional assay as described above and the data are shown in Table 16. The compound numbers correspond to the compound numbers used in Table 15.

Setting [3] is: increase in the EC20 acetylcholine response.

A word on the Emax: it is the maximal effect, on the per cent scale that the assay sets. The term EC50 denotes the concentration at which the effect is half-maximal.

Consider `C[C@H](c1c(F)cc(-c2ccc(C(C)(C)O)c3nn(C)cc23)cc1F)N1Cc2ncccc2C1=O` [Compound 94, (R)-6-(1-(2,6-difluoro-4-(7-(2-hydroxypropan-2-yl)-2-methyl-2H-indazol-4-yl)phenyl)ethyl)-6,7-dihydro-5H-pyrrolo[3,4-b]pyridin-5-one], for which the “Agonist Activity Human M1 EC50” value in assay [1] is “inactive”. The Emax in assay [2] was 60%. Also, in assay [2] (setting [3]), the half-maximal effective concentration (EC50) worked out at 1.27 µM.
As for `Cn1cc2c(-c3cc(F)c(CN4Cc5ncncc5C4=O)c(F)c3)ccc(C(C)(C)O)c2n1` [Compound 139, 6-(2,6-difluoro-4-(7-(2-hydroxypropan-2-yl)-2-methyl-2H-indazol-4-yl)benzyl)-6,7-dihydro-5H-pyrrolo[3,4-d]pyrimidin-5-one], the EC50 stood at 3.78 µM in assay [1] and 0.08 µM in assay [2] (setting [3]). The results for the Emax in assay [1] and in assay [2] were 46% and 87%, respectively.
On to `Cc1cc(-c2ccc(C(C)(C)O)c3nn(C)cc23)cc(F)c1CN1Cc2cccc(F)c2C1=O` [Compound 162, 7-fluoro-2-(2-fluoro-4-(7-(2-hydroxypropan-2-yl)-2-methyl-2H-indazol-4-yl)-6-methylbenzyl)isoindolin-1-one], for which the figures for the half-maximal effective concentration (EC50) in assay [1] and in assay [2] (setting [3]) were at least 10 µM and 0.202 µM, respectively. For the same compound, the maximal effect (Emax) was 19% in assay [1] and 75% in assay [2].
For `[2H]C1([2H])c2ncccc2C(=O)N1Cc1c(F)cc(-c2ccc(C(C)(C)O)c3nn(C([2H])([2H])[2H])cc23)cc1C1CC1` (single isomer, unassigned) [Compound 147, 6-(2-cyclopropyl-6-fluoro-4-(7-(2-hydroxypropan-2-yl)-2-(methyl-d3)-2H-indazol-4-yl)benzyl)-6,7-dihydro-5H-pyrrolo[3,4-b]pyridin-5-one-7,7-d2], in that order: 6.19 µM, 0.074 µM, 43% and 62%.
For `[2H]C1([2H])c2ncccc2C(=O)N1Cc1c(C)cc(-c2ccc(C(C)(C)O)c3nn(C)cc23)cc1F` (single isomer, unassigned) [Compound 144, 6-(2-fluoro-4-(7-(2-hydroxypropan-2-yl)-2-methyl-2H-indazol-4-yl)-6-methylbenzyl)-6,7-dihydro-5H-pyrrolo[3,4-b]pyridin-5-one-7,7-d2], in that order: 5.57 µM, 0.101 µM, 58% and 89%.
In the case of `Cn1nc(-c2cc(F)c(CN3Cc4ncccc4C3=O)c(F)c2)c2ccc(C(C)(C)O)cc21` [Compound 52, 6-(2,6-difluoro-4-(6-(2-hydroxypropan-2-yl)-1-methyl-1H-indazol-3-yl)benzyl)-6,7-dihydro-5H-pyrrolo[3,4-b]pyridin-5-one], the “Agonist Activity Human M1 EC50” value in assay [1] is “inactive”. Besides, the Emax in assay [2] was determined as 58%. In assay [2] (setting [3]), the concentration for a half-maximal effect (EC50) came to 9.57 µM.
On to `Cc1c(C(C)(C)O)ccc(-c2cc(F)c(CN3Cc4ncccc4C3=O)c(F)c2)c1F` [Compound 56, 6-((2′,3,5-trifluoro-4′-(2-hydroxypropan-2-yl)-3′-methyl-[1,1′-biphenyl]-4-yl)methyl)-6,7-dihydro-5H-pyrrolo[3,4-b]pyridin-5-one], for which the “Agonist Activity Human M1 EC50” value in assay [1] was “inactive”. Also, in assay [2], the Emax is 50%. Moreover, in assay [2] (setting [3]), the 50% effective concentration (EC50) was 5.16 µM.
`CC[C@](C)(O)c1ccc(-c2cc(F)c(CN3Cc4ncccc4C3=O)c(F)c2)c2cn(C)nc12` [Compound 103, (S)-6-(2,6-difluoro-4-(7-(2-hydroxybutan-2-yl)-2-methyl-2H-indazol-4-yl)benzyl)-6,7-dihydro-5H-pyrrolo[3,4-b]pyridin-5-one]: the half-maximal effective concentration (EC50) in assay [1] amounted to 4.23 µM; in assay [2] (setting [3]), 0.254 µM. Moreover, the Emax in assay [1] came to 11%; in assay [2], 87%.
Consider `[2H]C1([2H])c2ncccc2C(=O)N1Cc1c(F)cc(-c2ccc(C(C)(C)O)c3nn(C([2H])([2H])[2H])cc23)cc1F` [Compound 145, 6-(2,6-difluoro-4-(7-(2-hydroxypropan-2-yl)-2-(methyl-d3)-2H-indazol-4-yl)benzyl)-6,7-dihydro-5H-pyrrolo[3,4-b]pyridin-5-one-7,7-d2], for which the concentration for a half-maximal effect (EC50) in assay [1] was found to be 3.78 µM; in assay [2] (setting [3]), 0.145 µM. The maximal response (Emax) in assay [1] stood at 12%; in assay [2] it was 62%.
Consider `Cc1cc(-c2cc(C(C)(C)O)cc3nn(C)cc23)cc(F)c1CN1Cc2ncccc2C1=O` [Compound 25, 6-(2-fluoro-4-(6-(2-hydroxypropan-2-yl)-2-methyl-2H-indazol-4-yl)-6-methylbenzyl)-6,7-dihydro-5H-pyrrolo[3,4-b]pyridin-5-one], for which the “Agonist Activity Human M1 EC50” value in assay [1] is “inactive”. The Emax in assay [2] was 76%. Moreover, the 50% effective concentration (EC50) in assay [2] (setting [3]) is 2.52 µM.
For `CC(C)(O)c1cc(F)c(-c2cc(F)c(CN3Cc4ncccc4C3=O)c(F)c2)cc1F` [Compound 48, 6-((2′,3,5,5′-tetrafluoro-4′-(2-hydroxypropan-2-yl)-[1,1′-biphenyl]-4-yl)methyl)-6,7-dihydro-5H-pyrrolo[3,4-b]pyridin-5-one], in assay [1], the “Agonist Activity Human M1 EC50” value was “inactive”. In assay [2] (setting [3]), the “PAM Activity Human M1 EC50” value was “inactive”.
Take `[2H]C1([2H])c2ncccc2C(=O)N1Cc1cc(F)c(-c2ccc(C(C)(C)O)c3nn(C)cc23)cc1F` [Compound 148, 6-(2,5-difluoro-4-(7-(2-hydroxypropan-2-yl)-2-methyl-2H-indazol-4-yl)benzyl)-6,7-dihydro-5H-pyrrolo[3,4-b]pyridin-5-one-7,7-d2]: the concentration for a half-maximal effect (EC50) in assay [1] was at least 10 µM; in assay [2] (setting [3]), 0.206 µM. Moreover, the Emax is 27% in assay [1] and 89% in assay [2].
